Laboratory results as given in ChEMBL document CHEMBL1201862, “PubChem BioAssay data set” (2004).
Activity calls are given as the source filed them.

What was measured:
[1] = target: DNA dC->dU-editing enzyme APOBEC-3A (Homo sapiens, UniProt P31941); assay: APOBEC3A DNA deaminase inhibitors, dose response, biochemical (AID 504722); type: functional
[2] = target: DNA dC->dU-editing enzyme APOBEC-3G (Homo sapiens, UniProt Q9HC16); assay: Dose Response confirmation of small molecule APOBEC3G DNA Deaminase Inhibitors via a fluorescence-based single-stranded DNA deaminase assay. [Related pubchem assays (depositor defined):AID493012, AID493028]; type: functional
Sequence of DNA dC->dU-editing enzyme APOBEC-3G (Q9HC16 whole entry): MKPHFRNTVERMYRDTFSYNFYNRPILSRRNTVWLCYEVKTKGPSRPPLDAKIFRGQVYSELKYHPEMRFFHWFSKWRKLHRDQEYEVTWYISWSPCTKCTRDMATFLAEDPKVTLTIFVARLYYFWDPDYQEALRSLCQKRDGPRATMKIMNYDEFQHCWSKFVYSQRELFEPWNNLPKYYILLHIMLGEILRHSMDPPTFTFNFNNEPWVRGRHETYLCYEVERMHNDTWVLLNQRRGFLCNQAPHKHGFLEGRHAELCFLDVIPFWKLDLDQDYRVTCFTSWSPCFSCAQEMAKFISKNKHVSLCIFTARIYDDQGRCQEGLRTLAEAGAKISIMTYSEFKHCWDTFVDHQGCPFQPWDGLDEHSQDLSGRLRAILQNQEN

[3] = system: HeLa; assay: HeLa cell cytotoxicity, dose response, cytotoxicity control, 24 h, cherry-picked samples (AID 504726); type: functional, cell-based; conditions: Homo sapiens;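 note: potency for cytotoxicity as loss of luminescence signal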
[4] = target: T1, fMet-Leu-Phe receptor (Homo sapiens, UniProt P21462); assay: FPR ligands, dose response (AID 519); type: functional
T1 sequence (P21462 whole entry): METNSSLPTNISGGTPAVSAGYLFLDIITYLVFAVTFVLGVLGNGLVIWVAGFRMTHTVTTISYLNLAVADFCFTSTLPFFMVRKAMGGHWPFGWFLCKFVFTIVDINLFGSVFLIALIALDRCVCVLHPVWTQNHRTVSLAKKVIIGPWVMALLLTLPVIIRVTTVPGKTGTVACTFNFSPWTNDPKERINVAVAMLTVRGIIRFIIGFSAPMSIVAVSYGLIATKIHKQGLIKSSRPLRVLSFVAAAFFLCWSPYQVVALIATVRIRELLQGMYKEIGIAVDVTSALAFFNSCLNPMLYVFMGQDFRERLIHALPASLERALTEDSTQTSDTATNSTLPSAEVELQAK

[5] = target: T2, Cytochrome P450 3A4 (Homo sapiens, UniProt P08684)
T2 sequence (P08684 whole entry): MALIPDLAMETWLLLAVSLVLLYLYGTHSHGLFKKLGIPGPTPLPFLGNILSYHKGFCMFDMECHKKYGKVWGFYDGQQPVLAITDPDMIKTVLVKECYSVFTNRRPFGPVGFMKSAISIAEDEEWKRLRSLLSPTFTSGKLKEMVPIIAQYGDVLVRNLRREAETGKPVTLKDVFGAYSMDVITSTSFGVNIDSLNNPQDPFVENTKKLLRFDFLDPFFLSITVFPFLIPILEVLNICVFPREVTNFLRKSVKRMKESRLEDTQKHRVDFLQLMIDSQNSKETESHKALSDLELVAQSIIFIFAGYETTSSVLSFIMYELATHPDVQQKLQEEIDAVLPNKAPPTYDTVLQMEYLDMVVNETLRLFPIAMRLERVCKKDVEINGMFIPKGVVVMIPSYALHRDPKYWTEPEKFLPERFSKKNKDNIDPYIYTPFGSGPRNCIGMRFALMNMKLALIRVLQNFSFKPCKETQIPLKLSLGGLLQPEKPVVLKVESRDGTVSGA

[6] = target: T3, Short transient receptor potential channel 4 (Mus musculus, UniProt Q9QUQ5); assay: mouse TRPC4 channel inhibitors, dose response, cell-based, HEK293 TRPC4/mu-opioid, Fluo-4 calcium (AID 434942); type: functional;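 note: potency of inhibitors blocking the TRPC4 calcium response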
T3 sequence (Q9QUQ5 whole entry): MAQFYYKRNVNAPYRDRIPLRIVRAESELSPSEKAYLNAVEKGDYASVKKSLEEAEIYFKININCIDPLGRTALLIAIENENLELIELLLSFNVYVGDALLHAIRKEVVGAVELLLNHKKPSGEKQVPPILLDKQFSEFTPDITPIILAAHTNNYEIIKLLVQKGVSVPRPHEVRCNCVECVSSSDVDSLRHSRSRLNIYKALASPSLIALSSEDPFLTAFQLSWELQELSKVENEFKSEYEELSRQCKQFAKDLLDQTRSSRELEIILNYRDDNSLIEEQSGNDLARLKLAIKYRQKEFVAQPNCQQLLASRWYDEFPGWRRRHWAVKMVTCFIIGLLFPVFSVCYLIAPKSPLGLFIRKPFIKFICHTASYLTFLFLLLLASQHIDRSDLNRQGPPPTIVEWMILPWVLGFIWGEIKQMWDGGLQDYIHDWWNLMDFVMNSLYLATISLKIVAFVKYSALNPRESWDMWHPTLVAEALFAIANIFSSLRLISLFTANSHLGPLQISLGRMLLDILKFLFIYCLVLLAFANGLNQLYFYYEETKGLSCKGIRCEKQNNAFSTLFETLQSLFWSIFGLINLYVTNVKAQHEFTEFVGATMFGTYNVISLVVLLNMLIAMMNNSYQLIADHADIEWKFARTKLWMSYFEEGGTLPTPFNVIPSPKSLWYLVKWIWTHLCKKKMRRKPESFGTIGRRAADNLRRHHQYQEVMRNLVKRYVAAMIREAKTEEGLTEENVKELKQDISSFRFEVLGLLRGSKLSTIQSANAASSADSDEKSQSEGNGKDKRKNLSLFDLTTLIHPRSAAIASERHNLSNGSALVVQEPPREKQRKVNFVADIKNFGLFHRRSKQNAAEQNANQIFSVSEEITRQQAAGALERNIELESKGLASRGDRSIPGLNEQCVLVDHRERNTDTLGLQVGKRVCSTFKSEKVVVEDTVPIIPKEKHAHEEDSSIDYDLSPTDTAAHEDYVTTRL

[7] = A cytotoxicity screen of small molecule inhibitors of the PhoP region in Salmonella typhi identified in the primary screen. [Related pubchem assays: 1850, 1864, 1985 ]; type: functional
[8] = system: Streptococcus sp. 'group A'; assay: growth inhibition of control SK(-) GAS strain, dose response, counter-screen for streptokinase expression inhibitor project, luminescence, kanamycin, BacTiterGlo, confirmation (AID 1900); type: functional, organism-based
[9] = target: T4, Streptokinase A (Streptococcus pyogenes serotype M1, UniProt P10520); assay: S. pyogenes streptokinase expression inhibitors, potency, dose response, plasminogen activation absorbance, OD405 (AID 1914); type: functional, Streptococcus pyogenes M1 GAS;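 note: secreted streptokinase activity via plasminogen activation per viability signal from cell pellet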
T4 sequence (P10520 whole entry): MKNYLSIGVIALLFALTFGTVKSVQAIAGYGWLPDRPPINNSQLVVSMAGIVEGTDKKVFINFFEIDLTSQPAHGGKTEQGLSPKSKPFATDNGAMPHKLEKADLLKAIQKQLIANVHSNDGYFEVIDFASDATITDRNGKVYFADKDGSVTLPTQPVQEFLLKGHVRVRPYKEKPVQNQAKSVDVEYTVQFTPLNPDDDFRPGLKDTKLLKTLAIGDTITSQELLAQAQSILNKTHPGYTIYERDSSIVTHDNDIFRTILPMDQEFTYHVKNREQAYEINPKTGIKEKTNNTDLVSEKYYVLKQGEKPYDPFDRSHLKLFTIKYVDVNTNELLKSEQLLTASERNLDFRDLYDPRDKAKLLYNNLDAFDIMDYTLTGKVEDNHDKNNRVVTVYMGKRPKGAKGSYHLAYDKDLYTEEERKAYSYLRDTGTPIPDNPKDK

[10] = system: Streptococcus; assay: Group A Streptococcus viability loss, dose response, counter-screen for streptokinase expression inhibitor project, luminescence, BacTiterGlo (AID 1915); type: functional, organism-based;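 note: potency for reduction of bacterial viability or growth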
[11] = THP-1 cell cytotoxicity, dose response, cytotoxicity control for non-replicating M. tuberculosis project (AID 489025); type: functional
[12] = cells; type: functional
[13] = A549 cell cytotoxicity, dose response, cytotoxicity control, plate reader, cherry-pick, antagonist series (AID 743412); type: functional, cell-based
[14] = HepG2 cell cytotoxicity, dose response, cytotoxicity control, plate reader, cherry-pick, antagonist series (AID 743416); type: functional, cell-based
[15] = LGR2 antagonists, dose response, cell-based, HEK293, CRE-luciferase reporter, cherry pick, set 2 (AID 743343); type: functional;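 note: transfected cells were stimulated with diluted bursicon conditioned medium after compound addition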
[16] = MC4R antagonists, dose response, counter-screen for LGR2 antagonist project, cell-based, plate reader, cherry pick (AID 743444); type: functional;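 note: transfected HEK 293 cells stimulated with alpha-MSH peptide; potency of inhibitors of the alpha-MSH evoked signal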
[17] = HEK293 cell cytotoxicity, dose response, cytotoxicity control, plate reader, cherry-picked samples (AID 743446); type: functional, cell-based
[18] = target: T2, Cytochrome P450 3A4; conditions: Potency
[19] = THP-1 cell cytotoxicity, dose response, cytotoxicity control for Vif-APOBEC3G degradation inhibitor project, THP-1 cells (AID 1117359); type: functional; conditions: Human immunodeficiency virus 1, THP-1
[20] = target: Cytochrome P450 2D6 (Homo sapiens, UniProt P10635);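 note: CYP2D6 member of a cytochrome P450 panel assay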
Sequence of Cytochrome P450 2D6 (P10635 whole entry): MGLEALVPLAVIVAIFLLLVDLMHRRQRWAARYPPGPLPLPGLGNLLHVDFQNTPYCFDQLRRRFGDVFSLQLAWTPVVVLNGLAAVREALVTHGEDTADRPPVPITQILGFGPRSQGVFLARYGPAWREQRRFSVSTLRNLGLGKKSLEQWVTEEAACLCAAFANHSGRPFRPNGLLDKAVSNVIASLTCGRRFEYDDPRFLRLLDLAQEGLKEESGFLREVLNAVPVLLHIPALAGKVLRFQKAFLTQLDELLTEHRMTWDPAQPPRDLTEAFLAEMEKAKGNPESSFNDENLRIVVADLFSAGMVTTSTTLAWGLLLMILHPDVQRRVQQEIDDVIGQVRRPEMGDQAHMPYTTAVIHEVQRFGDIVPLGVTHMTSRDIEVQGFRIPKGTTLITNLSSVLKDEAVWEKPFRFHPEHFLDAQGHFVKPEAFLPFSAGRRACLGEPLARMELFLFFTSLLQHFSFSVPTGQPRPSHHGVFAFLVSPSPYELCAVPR

Sequence of DNA dC->dU-editing enzyme APOBEC-3A (P31941 whole entry): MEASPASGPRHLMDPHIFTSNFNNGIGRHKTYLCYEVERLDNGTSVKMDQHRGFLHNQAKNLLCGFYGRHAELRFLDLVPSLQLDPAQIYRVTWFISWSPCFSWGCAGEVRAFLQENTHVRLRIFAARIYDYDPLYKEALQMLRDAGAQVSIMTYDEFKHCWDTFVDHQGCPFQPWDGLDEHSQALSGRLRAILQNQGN

Question: Which results are given for `Cc1nnc(S)n1/N=C/c1c(O)ccc2ccccc12`?
Answer: IC50 [1]: > 100 µM (inactive); IC50 [2]: 2.42 µM (active)

Question: Which AC50 [3] does the source give for `COc1cccc(NC(=O)CN(C)CC(=O)NCc2ccco2)c1` here?
Answer: The AC50 was 115 µM (active).

Question: With `COc1ccc(C2C(C(=O)c3ccco3)=C(O)C(=O)N2Cc2cccnc2)cc1OC` (stereo not drawn) as the molecule, how does the Ki [4] read?
Answer: Its Ki is > 66.7 µM (inactive).

Question: For `Cc1nc2c(C#N)c(C)nn2c(O)c1Cc1ccccc1`, which Ki [4] is on record?
Answer: The Ki was 50 µM (inactive).

Question: And the AC50 [5]?
Answer: Its AC50 is 25.1 µM (inconclusive).

Question: With `CCCCNCC1C(Oc2ccc(Cl)cc2)C(=O)N1c1ccccc1C` (stereo not drawn) as the molecule, how does the EC50 [6] read?
Answer: Its EC50 is 4.22 µM (active).

Question: Which EC50 [7] does the source give for `C1=Nc2ccccc2CN1c1ccccc1` here?
Answer: Its EC50 is > 50 µM (active).

Question: With `Cc1ccc(C(=O)n2c(N)nc3ccccc32)cc1` as the molecule, how does the EC50 [8] read?
Answer: The EC50 was 13.2 µM (active).

Question: And the EC50 [9]?
Answer: The EC50 was > 150 µM (not active).

Question: And the EC50 [10]?
Answer: The EC50 was 115 µM (active).

Question: And the CC50 [11]?
Answer: Its CC50 is > 40 µM (active).

Question: And the IC50 [12]?
Answer: The IC50 was 6.64 µM (active).

Question: What about the AC50 [13] of the same molecule?
Answer: The AC50 was 24.9 µM (active).

Question: And the AC50 [14]?
Answer: Its AC50 is > 52 µM (inactive).

Question: What about the AC50 [15] of the same molecule?
Answer: Its AC50 is 1.44 µM (active).

Question: And the AC50 [16]?
Answer: Its AC50 is 1.43 µM (active).

Question: What about the AC50 [17] of the same molecule?
Answer: The AC50 was > 52 µM (inactive).

Question: For `COCCNC(=O)[C@H](C)/C=C/C(NC(=O)OCc1ccccc1)c1ccc(C(=O)OC)cc1` (stereo partly drawn), which AC50 [18] is on record?
Answer: The AC50 was 7.94 µM (inconclusive).

Question: Which CC50 [19] does the source give for `Oc1ccc(C2Nc3cccc4cccc(c34)N2)c(O)c1` here?
Answer: Its CC50 is > 40 µM (active).

Question: What about the AC50 [20] of the same molecule?
Answer: Its AC50 is 25.1 µM (inconclusive).

Question: With `O=C(CCn1cccc1)Nc1ccc(OC(F)(F)F)cc1` as the molecule, how does the EC50 [7] read?
Answer: Its EC50 is > 50 µM (active).

Question: For `CN(C)c1ccc(/C=C2\CCCN=C2c2cccnc2)cc1`, which AC50 [18] is on record?
Answer: The AC50 was 10 µM (inconclusive).
